Experimental data as given in article PMC6277767, “Broad and Region-Specific Impacts of the Synthetic Cannabinoid CP 55,940 in Adolescent and Adult Female Mouse Brains” (Frontiers in Molecular Neuroscience, 2018).

Tested on: CD1 female mouse brain lipidome
Test: Brain-region lipid levels (HPLC/MS/MS lipidomics) 2 h after single i.p. 3 mg/kg CP 55,940 vs vehicle
Assay type: in vivo
Protocol: The Bloomington Institutional Animal Care and Use Committee of Indiana University reviewed and approved the animal procedures. Female mice from the CD1 strain were utilized to match our study examining THC’s effects on the brain lipidome ([Leishman et al., 2018]). Mice were given a single i.p. injection of either 3 mg/kg CP or 1:1:18 cremophor:ethanol:saline vehicle (please refer to the section “3 mg/kg CP Is Relevant for Synthetic Cannabinoid Abuse and Has Stronger Effects on the Female Mouse Brain Lipidome During Adolescence” for a justification of dose and use of female mice). Three different age groups were given injections: PND 35 and PND 50 adolescents, and adult mice (PND 113). At least eight mice in each age group received CP and at least eight received vehicle. Matching the THC study time course ([Leishman et al., 2018]), mice were sacrificed via rapid decapitation 2 h after injection. Brains were immediately removed and flash-frozen in liquid nitrogen, and then stored at -80°C until dissections were performed. Brains were dissected on an ice-cold dissection plate into the following regions: STR, HIPP, CER, THAL, CTX, HYP, MID, and STEM. These abbreviations for these brain areas will be used exclusively when discussing the results generated by these specific dissections. Each dissected area was immediately placed in liquid nitrogen and then stored at -80°C until used for lipid extraction.
Tissue extracts were performed as previously described ([Bradshaw et al., 2006]; [Stuart et al., 2013]; [Raboune et al., 2014]; [Leishman et al., 2016a],[b], [2017], [2018]). First, samples were shock frozen in liquid nitrogen, weighed, and transferred to a centrifuge tube. The mass of the largest sample was multiplied by 50 to determine how many milliliters of HPLC-grade methanol (Fisher, Fair Lawn, NJ, United States) to add. Then, samples were spiked with 500 pmol deuterium-labeled NAGly (d8NAGly; Cayman Chemical, Ann Arbor, MI, United States). Samples were placed on ice in darkness for 2 h then individually homogenized and centrifuged at 19,000 × g for 20 min at 20°C. Supernatants were diluted with HPLC water (purified in house) to make a solution of 75% water, 25% supernatant. Lipids were partially purified on C18 solid phase extraction columns (Agilent, Palo Alto, CA, United States). A series of four elutions with 1.5 mL of 60%, 75%, 85%, and 100% methanol were collected ([Stuart et al., 2013]; [Leishman et al., 2016a],[b], [2018]).
As previously described ([Bradshaw et al., 2006]; [Tan et al., 2006]; [Smoum et al., 2010]; [Stuart et al., 2013]; [Tortoriello et al., 2013]; [Raboune et al., 2014]; [Leishman et al., 2016a],[b], [2017], [2018]), samples were analyzed using an Applied Biosystems API 3000 triple quadrupole mass spectrometer with electrospray ionization (Foster City, CA, United States). Using an Agilent XDB-C18 reversed phase analytical column and optimized mobile phase gradients, 20 μL from each elution were chromatographed. Two Shimadzu 10ADvp pumps (Columbia, MD, United States) provided the pressure for gradient elution. Mobile phase A: 20% methanol, 80% water (v/v) and 1 mM ammonium acetate (Sigma, St. Louis, MO, United States). Mobile phase B: 100% methanol, 1 mM ammonium acetate. Every method run began with 0% mobile phase B, reached 100% mobile phase B flowing at 0.2 mL/min, and gradually returned to 0% mobile phase B.
This screening library will be referred to as the lipidome when discussing data from this study. HPLC/MS/MS data were analyzed using Analyst software (Applied Biosystems) ([Bradshaw et al., 2006]; [Tan et al., 2006]; [Stuart et al., 2013]; [Tortoriello et al., 2013]; [Raboune et al., 2014]; [Leishman et al., 2016a],[b], [2017], [2018]). Chromatograms (Supplementary Figure 3) were generated by determining the retention time of analytes from the analytical column with a [M-1] or [M+1] parent peak and a fragmentation peak corresponding to the programmed values. […]

## CCCCCCC(C)(C)c1ccc([C@@H]2C[C@H](O)CC[C@H]2CCCO)c(O)c1 [CP 55,940]
PND 35
  total changes in lipid levels across the eight regions: 231
PND 35, eight regions
  changes in lipid levels that were decreases: 152
PND 35 CER
  2-arachidonoyl glycerol level vs vehicle: ↓ (1-1.49 times lower than vehicle)
  2-linoleoyl glycerol level vs vehicle: ↓ (1-1.49 times lower than vehicle)
  6-ketoPGF1α level vs vehicle: ↓↓ (1.50-1.99 times lower than vehicle)
  Arachidonic acid level vs vehicle: ↓ (1-1.49 times lower than vehicle)
  N-arachidonoyl GABA level vs vehicle: ↓ (1-1.49 times lower than vehicle)
  N-arachidonoyl alanine level vs vehicle: ↓ (1-1.49 times lower than vehicle)
  N-arachidonoyl glycine level vs vehicle: ↓ (1-1.49 times lower than vehicle)
  N-arachidonoyl methionine level vs vehicle: ↓↓ (1.50-1.99 times lower than vehicle)
  N-arachidonoyl serine level vs vehicle: ↓ (1-1.49 times lower than vehicle)
  N-arachidonoyl taurine level vs vehicle: ↓ (1-1.49 times lower than vehicle)
  N-arachidonoyl tyrosine level vs vehicle: ↓ (1-1.49 times lower than vehicle)
  N-docosahexaenoyl GABA level vs vehicle: ↓ (1-1.49 times lower than vehicle)
  N-docosahexaenoyl alanine level vs vehicle: ↓ (1-1.49 times lower than vehicle)
  N-docosahexaenoyl glycine level vs vehicle: ↓ (1-1.49 times lower than vehicle)
  N-docosahexaenoyl leucine level vs vehicle: ↑ (1-1.49 times higher than vehicle)
  N-docosahexaenoyl serine level vs vehicle: ↓ (1-1.49 times lower than vehicle)
  N-docosahexaenoyl tyrosine level vs vehicle: ↓ (1-1.49 times lower than vehicle)
  N-linoleoyl glycine level vs vehicle: ↓ (1-1.49 times lower than vehicle)
  N-linoleoyl leucine level vs vehicle: ↑ (1-1.49 times higher than vehicle)
  N-linoleoyl phenylalanine level vs vehicle: ↑ (1-1.49 times higher than vehicle)
  N-oleoyl GABA level vs vehicle: ↓ (1-1.49 times lower than vehicle)
  N-oleoyl ethanolamine level vs vehicle: ↓ (1-1.49 times lower than vehicle)
  N-oleoyl leucine level vs vehicle: ↑ (1-1.49 times higher than vehicle)
  N-oleoyl phenylalanine level vs vehicle: ↑ (1-1.49 times higher than vehicle)
  N-palmitoyl leucine level vs vehicle: ↑↑ (1.50-1.99 times higher than vehicle)
  N-palmitoyl phenylalanine level vs vehicle: ↑ (1-1.49 times higher than vehicle)
  N-palmitoyl proline level vs vehicle: ↓ (1-1.49 times lower than vehicle)
  N-palmitoyl serine level vs vehicle: ↓ (1-1.49 times lower than vehicle)
  N-palmitoyl tyrosine level vs vehicle: ↑ (1-1.49 times higher than vehicle)
  N-palmitoyl valine level vs vehicle: ↑↑ (1.50-1.99 times higher than vehicle)
PND 35 CTX
  2-palmitoyl glycerol level vs vehicle: ↑↑ (1.50-1.99 times higher than vehicle)
  6-ketoPGF1α level vs vehicle: ↓ (1-1.49 times lower than vehicle)
  N- stearoyl valine level vs vehicle: ↑ (1-1.49 times higher than vehicle)
  N-arachidonoyl GABA level vs vehicle: ↓ (1-1.49 times lower than vehicle)
  N-arachidonoyl alanine level vs vehicle: ↓ (1-1.49 times lower than vehicle)
  N-arachidonoyl glycine level vs vehicle: ↓ (1-1.49 times lower than vehicle)
  N-arachidonoyl methionine level vs vehicle: ↓↓ (1.50-1.99 times lower than vehicle)
  N-arachidonoyl phenylalanine level vs vehicle: ↓ (1-1.49 times lower than vehicle)
  N-arachidonoyl serine level vs vehicle: ↓ (1-1.49 times lower than vehicle)
  N-arachidonoyl taurine level vs vehicle: ↓ (1-1.49 times lower than vehicle)
  N-arachidonoyl tyrosine level vs vehicle: ↓ (1-1.49 times lower than vehicle)
  N-docosahexaenoyl GABA level vs vehicle: ↓ (1-1.49 times lower than vehicle)
  N-docosahexaenoyl glycine level vs vehicle: ↓ (1-1.49 times lower than vehicle)
  N-docosahexaenoyl leucine level vs vehicle: ↑↑ (1.50-1.99 times higher than vehicle)
  N-docosahexaenoyl serine level vs vehicle: ↓↓ (1.50-1.99 times lower than vehicle)
  N-docosahexaenoyl valine level vs vehicle: ↑ (1-1.49 times higher than vehicle)
  N-linoleoyl GABA level vs vehicle: ↓ (1-1.49 times lower than vehicle)
  N-linoleoyl glycine level vs vehicle: ↓ (1-1.49 times lower than vehicle)
  N-oleoyl GABA level vs vehicle: ↓ (1-1.49 times lower than vehicle)
  N-oleoyl alanine level vs vehicle: ↓ (1-1.49 times lower than vehicle)
  N-oleoyl glycine level vs vehicle: ↓ (1-1.49 times lower than vehicle)
  N-oleoyl leucine level vs vehicle: ↑ (1-1.49 times higher than vehicle)
  N-oleoyl methionine level vs vehicle: ↓ (1-1.49 times lower than vehicle)
  N-oleoyl valine level vs vehicle: ↑ (1-1.49 times higher than vehicle)
  N-palmitoyl leucine level vs vehicle: ↑↑ (1.50-1.99 times higher than vehicle)
  N-palmitoyl serine level vs vehicle: ↓ (1-1.49 times lower than vehicle)
  N-palmitoyl tyrosine level vs vehicle: ↑ (1-1.49 times higher than vehicle)
  N-palmitoyl valine level vs vehicle: ↑↑ (1.50-1.99 times higher than vehicle)
  N-stearoyl serine level vs vehicle: ↓ (1-1.49 times lower than vehicle)
  N-stearoyl tyrosine level vs vehicle: ↑ (1-1.49 times higher than vehicle)
  PGF2α level vs vehicle: ↑ (1-1.49 times higher than vehicle)
  phosphoLEA level vs vehicle: ↑↑ (1.50-1.99 times higher than vehicle)
PND 35 HIPP
  2-arachidonoyl glycerol level vs vehicle: ↓ (1-1.49 times lower than vehicle)
  2-linoleoyl glycerol level vs vehicle: ↓↓ (1.50-1.99 times lower than vehicle)
  2-oleoyl glycerol level vs vehicle: ↓ (1-1.49 times lower than vehicle)
  6-ketoPGF1α level vs vehicle: ↑ (1-1.49 times higher than vehicle)
  Arachidonic acid level vs vehicle: ↓ (1-1.49 times lower than vehicle)
  Linoleic acid level vs vehicle: ↓ (1-1.49 times lower than vehicle)
  N- stearoyl valine level vs vehicle: ↑ (1-1.49 times higher than vehicle)
  N-arachidonoyl GABA level vs vehicle: ↓↓ (1.50-1.99 times lower than vehicle)
  N-arachidonoyl alanine level vs vehicle: ↓ (1-1.49 times lower than vehicle)
  N-arachidonoyl ethanolamine level vs vehicle: ↓ (1-1.49 times lower than vehicle)
  N-arachidonoyl glycine level vs vehicle: ↓ (1-1.49 times lower than vehicle)
  N-arachidonoyl phenylalanine level vs vehicle: ↓ (1-1.49 times lower than vehicle)
  N-arachidonoyl serine level vs vehicle: ↓↓↓ (2-2.99 times lower than vehicle)
  N-arachidonoyl taurine level vs vehicle: ↓ (1-1.49 times lower than vehicle)
  N-docosahexaenoyl GABA level vs vehicle: ↓↓ (1.50-1.99 times lower than vehicle)
  N-docosahexaenoyl alanine level vs vehicle: ↓ (1-1.49 times lower than vehicle)
  N-docosahexaenoyl ethanolamine level vs vehicle: ↓ (1-1.49 times lower than vehicle)
  N-docosahexaenoyl glycine level vs vehicle: ↓ (1-1.49 times lower than vehicle)
  N-docosahexaenoyl leucine level vs vehicle: ↑ (1-1.49 times higher than vehicle)
  N-docosahexaenoyl serine level vs vehicle: ↓ (1-1.49 times lower than vehicle)
  N-linoleoyl GABA level vs vehicle: ↓↓ (1.50-1.99 times lower than vehicle)
  N-linoleoyl alanine level vs vehicle: ↓ (1-1.49 times lower than vehicle)
  N-oleoyl GABA level vs vehicle: ↓↓ (1.50-1.99 times lower than vehicle)
  N-oleoyl alanine level vs vehicle: ↓ (1-1.49 times lower than vehicle)
  N-oleoyl ethanolamine level vs vehicle: ↓ (1-1.49 times lower than vehicle)
  N-oleoyl glycine level vs vehicle: ↓ (1-1.49 times lower than vehicle)
  N-oleoyl methionine level vs vehicle: ↓ (1-1.49 times lower than vehicle)
  N-oleoyl valine level vs vehicle: ↑ (1-1.49 times higher than vehicle)
  N-palmitoyl alanine level vs vehicle: ↓ (1-1.49 times lower than vehicle)
  N-palmitoyl ethanolamine level vs vehicle: ↓ (1-1.49 times lower than vehicle)
  N-palmitoyl leucine level vs vehicle: ↑ (1-1.49 times higher than vehicle)
  N-palmitoyl phenylalanine level vs vehicle: ↑ (1-1.49 times higher than vehicle)
  N-palmitoyl tyrosine level vs vehicle: ↑ (1-1.49 times higher than vehicle)
  N-palmitoyl valine level vs vehicle: ↑ (1-1.49 times higher than vehicle)
  N-stearoyl GABA level vs vehicle: ↓ (1-1.49 times lower than vehicle)
  N-stearoyl alanine level vs vehicle: ↓ (1-1.49 times lower than vehicle)
  N-stearoyl glycine level vs vehicle: ↓ (1-1.49 times lower than vehicle)
  Oleic Acid level vs vehicle: ↓ (1-1.49 times lower than vehicle)
